According to patent publication US11135320B2, “Radioligands for pretargeted pet imaging and methods of their therapeutic use” (priority 2015, dated 2021):
“And” between values parts separate entries of the source, which are not always exact repeats. Identical values can stand only once.

Experiments:
[1] = Stability of ^64Cu-labeled tetrazines in human serum at 37° C.; format: in vitro ADME
Experimental: (§1) Next, the aqueous and serum stabilities were determined via incubation at 37° C. (Tables 2-3). […] For example, after a 4 h incubation, 77.8±3.5% and 81.2±3.7% of ^64Cu-Tz-PEG7-NOTA and ^64Cu-Tz-SarAr, respectively, remained intact. Importantly, the release of ^64Cu^2+ from the chelators was not observed in any of the trials. Despite the rates of decomposition, the speed of the IEDDA reaction was faster than short blood half-lives of these small molecules; therefore, the radioligands remained functional in vivo.
(§2) ^64Cu-Tz-PEG7-NOTA and ^64Cu-Tz-SarAr (1000 μCi) were incubated on an agitating thermomixer (300 rpm) at 37° C. in 500 μL of either PBS (pH 7.4) or human serum. At each prescribed time-point, 100 μL of the solution was removed and placed into a 1.7 mL microcentrifuge tube. For the PBS samples, the compound was injected directly onto the HPLC and analyzed using a gradient of 5:95 CH3CN:H2O (both with 0.1% TFA) to 95:5 CH3CN:H2O over 15 min. For the serum samples, 100 μL cold CH3CN was added to the serum, and the resultant mixture was vortexed and centrifuged at 10,000 rpm for 10 min. After this, the clear supernatant was removed, moved to a new 1.7 mL microcentrifuge tube, and centrifuged again at 10,000 rpm for 10 min. The clear supernatant from this second spin was then injected into the HPLC and analyzed using a gradient of 5:95 CH3CN:H2O (both with 0.1% TFA) to 95:5 CH3CN:H2O over 15 min. The residual protein from the centrifuge spins was checked for radioactivity, and only minimal residual activity remained (less than 1% of the starting ^64Cu for each ^64Cu-Tz-PEG7-NOTA and ^64Cu-Tz-SarAr). The fraction of intact ^64Cu-Tz-PEG7-NOTA or ^64Cu-Tz-SarAr was determined by integrating the peak corresponding to the compound (tR=9.7 and 8.7 minutes, respectively) and dividing by the integral over the whole HPLC run. Both the injection loop and column were monitored to detect the presence of residual activity. All experiments were performed in triplicate.

[2] = Acute biodistribution of ^64Cu-labeled tetrazine radioligands in healthy mice; format: in vivo, athymic nude mice; conditions: for Large Intestine activity concentration / Small Intestine activity concentration / Stomach activity concentration: contents not removed
Experimental: (§3) Mice were administered ^64Cu-Tz-NOTA (25-30 μCi in 200 μL 0.9% sterile saline) via intravenous tail vein injection. Animals (n=4 per group) were euthanized by CO2(g) asphyxiation at 1, 4, and 24 h after injection. After asphyxiation, tissues were removed, rinsed in water, dried in air for 5 min, weighed, and counted in a gamma counter calibrated for ^64Cu. Counts were converted into activity using a calibration curve generated from known standards. Count data were background- and decay-corrected to the time of injection, and the percent injected dose per gram (% ID/g) for each tissue sample was calculated by normalization to the total activity injected. Contents within the stomach, small intestine, and large intestine were not removed for the measurements.
as §3, with “^64Cu-Tz-PEG7-NOTA” for “^64Cu-Tz-NOTA”
as §3, with “^64Cu-Tz-SarAr” for “^64Cu-Tz-NOTA”
as §3, with “Healthy female athymic nude mice (n=4 per radioligand) were” for “Mice were”, “administered ^64Cu-Tz-PEG7-NOTA or ^64Cu-Tz-SarAr” for “administered ^64Cu-Tz-NOTA”, “vein injection (t=0).” for “vein injection.”, “4, 12,” for “4,”, “injected.” for “injected. Contents within the stomach, small intestine, and large intestine were not removed for the measurements.”

[3] = Stability of ^64Cu-labeled tetrazines in PBS (pH 7.4) at 37° C.; format: physicochemical; conditions: PBS pH 7.4, 37° C.
Experimental: as §1, §2

SMILES | % Intact (Serum) ([1]; 2 h) | % Intact (Serum) ([1]; 4 h) | % Intact (Serum) ([1]; 8 h) | Blood activity concentration ([2]; 1 h p.i.) | Bone activity concentration ([2]; 1 h p.i.) | Heart activity concentration ([2]; 1 h p.i.) | Kidney activity concentration ([2]; 1 h p.i.) | Liver activity concentration ([2]; 1 h p.i.) | Lung activity concentration ([2]; 1 h p.i.) | Muscle activity concentration ([2]; 1 h p.i.) | Spleen activity concentration ([2]; 1 h p.i.) | Large Intestine activity concentration ([2]; 1 h p.i.) | Small Intestine activity concentration ([2]; 1 h p.i.) | Stomach activity concentration ([2]; 1 h p.i.) | Blood activity concentration ([2]; 4 h p.i.) | Bone activity concentration ([2]; 4 h p.i.) | Heart activity concentration ([2]; 4 h p.i.) | Kidney activity concentration ([2]; 4 h p.i.) | Liver activity concentration ([2]; 4 h p.i.) | Lung activity concentration ([2]; 4 h p.i.) | also measured
O=C(O)CN1CCN(CC(=O)O)CC(Cc2ccc(NC(=S)NCCOCCOCCOCCOCCOCCOCCOCCNC(=O)CCCC(=O)NCc3ccc(-c4nncnn4)cc3)cc2)N(CC(=O)O)CC1.[64Cu] (stereo not drawn) [^64Cu-Tz-PEG7-NOTA] | 84.7 +/− 4.8% and 84.7 ± 4.8% | 77.8±3.5% | 64.0 ± 6.5% | 0.38 ± 0.14 % ID/g | 0.09 ± 0.06 % ID/g | 0.17 ± 0.02 % ID/g | 1.5±0.2 % ID/g and 1.51 ± 0.24 % ID/g | 0.77 ± 0.11 % ID/g | 0.49 ± 0.11 % ID/g | 0.05 ± 0.01 % ID/g | 0.19 ± 0.01 % ID/g | 6.35 ± 0.69 % ID/g | 0.5 ± 0.26 % ID/g | 0.18 ± 0.06 % ID/g | 0.26 ± 0.14 % ID/g | 0.07 ± 0.02 % ID/g | 0.18 ± 0.03 % ID/g | 1.2±0.4 % ID/g and 1.23 ± 0.39 % ID/g | 0.63 ± 0.2 % ID/g | 0.35 ± 0.13 % ID/g | Muscle activity concentration ([2]; 4 h p.i.): 0.03 ± 0.02 % ID/g; Spleen activity concentration ([2]; 4 h p.i.): 0.14 ± 0.02 % ID/g; Large Intestine activity concentration ([2]; 4 h p.i.): 4.9±0.7 % ID/g and 4.91 ± 0.71 % ID/g; Small Intestine activity concentration ([2]; 4 h p.i.): 0.3 ± 0.14 % ID/g; Stomach activity concentration ([2]; 4 h p.i.): 0.36 ± 0.25 % ID/g; Blood activity concentration ([2]; 24 h p.i.): 0.08 ± 0.01 % ID/g; Bone activity concentration ([2]; 24 h p.i.): 0.06 ± 0.01 % ID/g; Heart activity concentration ([2]; 24 h p.i.): 0.09 ± 0.01 % ID/g; Kidney activity concentration ([2]; 24 h p.i.): 0.86 ± 0.11 % ID/g; Liver activity concentration ([2]; 24 h p.i.): 0.32 ± 0.11 % ID/g; Lung activity concentration ([2]; 24 h p.i.): 0.17 ± 0.03 % ID/g; Muscle activity concentration ([2]; 24 h p.i.): 0.02 ± 0.01 % ID/g; Spleen activity concentration ([2]; 24 h p.i.): 0.12 ± 0.01 % ID/g; Large Intestine activity concentration ([2]; 24 h p.i.): 0.40 ± 0.15 % ID/g; Small Intestine activity concentration ([2]; 24 h p.i.): 0.10 ± 0.01 % ID/g; Stomach activity concentration ([2]; 24 h p.i.): 0.09 ± 0.02 % ID/g; % Intact (PBS) ([3]; 2 h): 87.0±1.3% and 87.0 +/− 1.3%; % Intact (PBS) ([3]; 4 h): 83.2±4.6%; % Intact (PBS) ([3]; 8 h): 76.2 ± 2.6%
NC12CNCCNCC(NCc3ccc(CNC(=O)CCCC(=O)NCc4ccc(-c5nncnn5)cc4)cc3)(CNCCNC1)CNCCNC2.[64Cu+2] [^64Cu-Tz-SarAr] | 92.0 +/− 2.1% and 92.0 ± 2.1% | 81.2±3.7% | 67.7 ± 4.3% | 0.42 ± 0.11 % ID/g | 0.12 ± 0.03 % ID/g | 0.22 ± 0.06 % ID/g | 2.3±0.4 % ID/g and 2.34 ± 0.35 % ID/g | 0.72 ± 0.03 % ID/g | 0.32 ± 0.06 % ID/g | 0.05 ± 0.03 % ID/g | 0.38 ± 0.06 % ID/g | 0.07±0.01 % ID/g | 0.29 ± 0.21 % ID/g | 0.24 ± 0.14 % ID/g | 0.15 ± 0.01 % ID/g | 0.09 ± 0.01 % ID/g | 0.12 ± 0.02 % ID/g | 1.57 ± 0.19 % ID/g | 0.42 ± 0.24 % ID/g | 0.31 ± 0.09 % ID/g | Muscle activity concentration ([2]; 4 h p.i.): 0.04 ± 0.01 % ID/g; Spleen activity concentration ([2]; 4 h p.i.): 0.2 ± 0.05 % ID/g; Large Intestine activity concentration ([2]; 4 h p.i.): 0.08 ± 0.03 % ID/g; Small Intestine activity concentration ([2]; 4 h p.i.): 0.16 ± 0.03 % ID/g; Stomach activity concentration ([2]; 4 h p.i.): 0.2 ± 0.1 % ID/g; Blood activity concentration ([2]; 24 h p.i.): 0.06 ± 0.01 % ID/g; Bone activity concentration ([2]; 24 h p.i.): 0.08 ± 0.02 % ID/g; Heart activity concentration ([2]; 24 h p.i.): 0.08 ± 0.02 % ID/g; Kidney activity concentration ([2]; 24 h p.i.): 1.26 ± 0.41 % ID/g; Liver activity concentration ([2]; 24 h p.i.): 0.28 ± 0.07 % ID/g; Lung activity concentration ([2]; 24 h p.i.): 0.24 ± 0.06 % ID/g; Muscle activity concentration ([2]; 24 h p.i.): 0.03 ± 0.01 % ID/g; Spleen activity concentration ([2]; 24 h p.i.): 0.21 ± 0.04 % ID/g; Large Intestine activity concentration ([2]; 24 h p.i.): 0.07 ± 0.01 % ID/g; Small Intestine activity concentration ([2]; 24 h p.i.): 0.07 ± 0.01 % ID/g; Stomach activity concentration ([2]; 24 h p.i.): 0.05 ± 0.01 % ID/g; % Intact (PBS) ([3]; 2 h): 94.7±0.6% and 94.7 +/− 0.6%; % Intact (PBS) ([3]; 4 h): 93.3±0.5%; % Intact (PBS) ([3]; 8 h): 89.7 ± 2.3%
